Measurements reported in patent US9644039B2, “Acid-degradable and bioerodible modified polyhydroxylated materials” (The Regents of the University of California, priority 2008, dated 2017).

Assays:
B16 tumor = test: Chemotherapy of subcutaneous B16 tumor with DOX particles; assay type: in vivo, mice; conditions: injected after 3 days
Procedure: To determine the maximum in vivo tolerated dose for the particles, a varying concentration of doses of 0 (PBS), 20, 40, and 60 mg/kg DOX equivalents are injected intravenously. The weights and general health of the mice are monitored until the ninth day after injection. Based on weight loss, the maximum injection of particles tolerated in mice is calculated. Once determined, mice are implanted subcutaneously with a B16 tumor. After 3 days mice are injected with PBS, free DOX, Ac-DEX particles encapsulating DOX, pegylated-Ac-DEX particles, or Doxcil (a commercially available doxorubicin/liposome conjugate). Mice are monitored for tumor growth. Once the tumor reaches an average diameter of 1.5 cm, the mice are sacrificed.

RAW macrophages = test: B3Z / LacZ MHC Class I antigen presentation assay; assay type: cell-based; conditions: APCs incubated with free or encapsulated ovalbumin
Procedure: The LacZ MHC Class I antigen presentation assay, as described by Sanderson, S.; Shastri, N. in Inter. Immun. 1994, 6, 369-376, is performed with degradable polymer particles made according to Example 3 with the modified hydroxylated polymers of Example 2 to test their ability to deliver proteins into APCs for Class I antigen presentation. This experiment uses the LacZ B3Z hybridoma, which is a CTL that recognizes the peptide sequence, […] (SEQ ID NO: 8), from ovalbumin, complexed with the MHC Class I molecule H-2K^b. This hybridoma produces β-galactosidase after encountering APCs that present […] as a Class I antigen, thus allowing Class I antigen presentation to be quantified by measuring β-galactosidase activity.
In order to assess the feasibility of using Ac-DEX based materials for vaccine applications, OVA-loaded Ac-DEX particles were incubated with RAW macrophages. […] 1×10^4 RAW macrophages were seeded overnight in a 96 well plate and subsequently incubated with OVA-containing Ac-DEX particles or free OVA. […] After six hours of incubation, Ac-DEX particles increased MHC class I presentation of the OVA-derived CD8^+ T-cell epitope, […], by a factor of 16 relative to free OVA (FIG. 15) measured by the B3Z assay (Karttunen, J.; Shastri, N., Proc. Natl. Acad. Sci. U.S.A. 1991, 88, 3972-6).

MO5 tumor cells = test: Tumor prophylactic vaccination, MO5 tumor challenge; assay type: in vivo, Mice; conditions: immunized subcutaneously day 0, 200,000 MO5 tumor cells day 7
Procedure: In one embodiment, Ac-DEX particles will encapsulate OVA similar to (Example 9 with B3Z assay) and be used in a tumor prophylactic and treatment vaccination against cancer. MO5 is a B16 tumor cell line that expresses OVA (Falo et al. 1995, Targeting antigen into the phagocytic pathway in vivo induces protective tumour immunity. Nat Med 1:649-53). Mice are immunized subcutaneously with 2 mg of Ac-DEX particles with a 2.5 wt % loading of OVA (50 μg of OVA) in the left flank on day 0. Other groups include mice which are injected with either OVA, saline, or Ac-DEX particles encapsulating OVA and an immunostimulatory CpG stimulant. We have shown earlier that adding CpG with acid labile particles drastically increases the efficacy of treatment(Standley et al. 2007, Incorporation of CpG oligonucleotide ligand into protein-loaded particle vaccines promotes antigen-specific CD8 T-cell immunity. Bioconjug Chem 18:77-83). CpG can be either co-injected with the particles, or it can be encapsulated inside the particles. […]
After injection, the tumor growth is monitored by measuring two perpendicular axes using calipers. Tumor volume is then calculated using the equation, volume=[…], with the length being the longest diameter and the width being the shortest diameter of the two perpendicular measurements. […]

Compound	tumor growth (order of groups) (B16 tumor)	activation of CTLs (Class I antigen presentation) (RAW macrophages)	tumor onset, tumor growth and survival time (MO5 tumor cells)
COc1cccc2c1C(=O)c1c(O)c3c(c(O)c1C2=O)C[C@@](O)(C(=O)CO)C[C@@H]3O[C@H]1C[C@H](N)[C@H](O)[C@H](C)O1 [free Dox, doxorubicin]	fastest tumor growth followed by, free Dox, Ac-DEX particles, Doxcil and finally PEGylated Ac-DEX particles	–	–
free ovalbumin: ovalbumin, model protein antigen, not encapsulated	–	not able to activate CTLs	fastest tumor onset and tumor growth
